For this assay, the target named is T1, p38α MAPK (Mus musculus, UniProt P47811).
T1 construct: gene Mapk14; endogenous p38α MAPK in the murine microglial BV-2 cell line
Briefly: western blot of phosphorylated substrate MK2 in LPS-stimulated BV2 cells (pMSK1 IC50 […]); in vivo effect lost in p38α T106M knock-in mice. The class given is cell-based. A general note: A western blot detects proteins with antibodies after separation by electrophoresis.

Usually IC50 stands for the point on the concentration scale where inhibition reaches its midpoint. Lower therefore signals higher potency.

T1 sequence (P47811 2-360): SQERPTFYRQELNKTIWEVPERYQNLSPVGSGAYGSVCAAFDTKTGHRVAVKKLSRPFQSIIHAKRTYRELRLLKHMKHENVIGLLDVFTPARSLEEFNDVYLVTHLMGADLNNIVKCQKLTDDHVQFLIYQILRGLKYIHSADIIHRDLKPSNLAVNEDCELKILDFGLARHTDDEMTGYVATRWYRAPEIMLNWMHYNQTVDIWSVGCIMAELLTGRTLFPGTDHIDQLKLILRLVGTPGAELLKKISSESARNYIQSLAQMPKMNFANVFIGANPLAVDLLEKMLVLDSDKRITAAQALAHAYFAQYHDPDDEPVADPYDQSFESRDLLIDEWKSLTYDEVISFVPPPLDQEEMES

Substance MW181 yielded a half-inhibitory concentration (IC50) of 1.2 µM.

These data come from publication PMC4122817, “Target Engagement Analysis and Link to Pharmacodynamic Endpoint for a Novel Class of CNS-penetrant and Efficacious p38α MAPK Inhibitors” (Journal of Neuroimmune Pharmacology, 2014).
